Tests used:
Assay type in all cases: functional
[1] = molecular target: T1, Thioredoxin reductase (Homo sapiens) (UniProt Q16881+Q9NNW7+Q86VQ6); experiment: Inhibition of human thioredoxin signalling assessed as inhibition of insulin reduction at 25 uM
[2] = test system: MDA-MB-468; experiment: Antitumor activity against human MDA-MB-468 cells by MTT assay
[3] = test system: HCT-116; experiment: Antitumor activity against human HCT116 cells by MTT assay
[4] = test system: Panel NCI-60 (60 carcinoma cell lines); experiment: Antitumor activity against human NCI60 cells
[5] = test system: MCF7; experiment: Antitumor activity against human MCF7 cells by MTT assay
[6] = molecular target: T1, Thioredoxin reductase (Homo sapiens); experiment: Inhibition of human thioredoxin signalling assessed as inhibition of insulin reduction at 10 uM
[7] = test system: HT-29; experiment: Antitumor activity against human HT29 cells by MTT assay
[8] = molecular target: T1, Thioredoxin reductase (Homo sapiens); experiment: Inhibition of human thioredoxin signalling assessed as inhibition of insulin reduction at 50 uM
[9] = molecular target: T1, Thioredoxin reductase (Homo sapiens); experiment: Inhibition of human thioredoxin signalling assessed as inhibition of insulin reduction at 100 uM

- inhibition [1]: 35.1%
- GI50 [2]: 410 nM
- GI50 [3]: 110 nM
- GI50 [5]: 440 nM
- inhibition [6]: 13.2%
- GI50 [7]: 590 nM
- inhibition [8]: 94.8%
- inhibition [9]: 95.8%
SMILES: O=C1C=CC(O)(c2nc3ccccc3s2)C=C1
- GI50 [4]: 230 nM
